# According to ChEMBL document CHEMBL3045210, “Inhibition of trans-Cinnamate 4-Hydroxylase by 4-Amino-5-aryl-2,3-dihydro-3H-1,2,4-triazole-3-thiones” (J Pestic Sci, 2005):
# Active and inactive are the calls of the source. No cut-off for these calls is given here.
# Biological target: T1, Trans-cinnamate 4-monooxygenase (Populus kitakamiensis, UniProt Q43054)
# T1 sequence (Q43054 whole entry): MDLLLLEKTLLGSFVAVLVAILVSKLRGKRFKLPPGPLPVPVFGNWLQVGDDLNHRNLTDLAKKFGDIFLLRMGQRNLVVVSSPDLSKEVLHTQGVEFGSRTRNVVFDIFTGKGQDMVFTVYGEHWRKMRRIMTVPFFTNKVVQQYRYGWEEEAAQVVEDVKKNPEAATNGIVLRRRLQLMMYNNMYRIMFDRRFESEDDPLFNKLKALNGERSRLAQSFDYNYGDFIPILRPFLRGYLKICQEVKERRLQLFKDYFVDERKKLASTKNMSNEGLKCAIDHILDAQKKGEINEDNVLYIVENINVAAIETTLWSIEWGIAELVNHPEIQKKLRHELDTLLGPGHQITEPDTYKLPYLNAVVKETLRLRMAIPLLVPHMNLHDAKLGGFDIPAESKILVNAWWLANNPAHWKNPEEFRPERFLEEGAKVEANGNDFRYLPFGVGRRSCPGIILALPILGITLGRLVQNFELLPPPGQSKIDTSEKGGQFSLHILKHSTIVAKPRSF
# Assay: Inhibition of Populus sieboldii x Populus grandidentata trans-cinnamate 4-hydroxylase assessed as p-coumaric acid level
row,Structure (SMILES),IC50
1,Nn1c(-c2ccc(O)cc2)n[nH]c1=S,> 100 µM
2,Nn1c(-c2cccc(F)c2)n[nH]c1=S,3.9 µM
3,Nn1c(S)nnc1-c1ccccc1,0.32 µM
4,Cc1ccc(-c2n[nH]c(=S)n2N)cc1,> 100 µM
5,Nn1c(-c2ccc(Cl)cc2)n[nH]c1=S,> 100 µM

# Next, values leading:
row,IC50,Structure (SMILES)
1,45 µM,Nn1c(-c2ccccn2)n[nH]c1=S
2,> 100 µM,Nn1c(-c2ccccc2Cl)n[nH]c1=S
3,45 µM,Nn1c(-c2cccs2)n[nH]c1=S
4,> 100 µM,Nn1c(S)nnc1-c1ccco1
5,13 µM,Nn1c(-c2ccncc2)n[nH]c1=S
6,51 µM,Nn1c(-c2cccnc2)n[nH]c1=S
7,5 µM,Nn1c(-c2cccc(Cl)c2)n[nH]c1=S
8,3.6 µM,Cc1cccc(-c2n[nH]c(=S)n2N)c1

# Biological target: T2, Trans-cinnamate 4-monooxygenase (Populus kitakamiensis) (UniProt Q43054)
# T2 sequence (whole entry): T1 sequence (Q43054 whole entry)
# Assay: Mixed-type inhibition of Populus sieboldii x Populus grandidentata trans-cinnamate 4-hydroxylase by Lineweaver-Burk plot analysis
row,Structure (SMILES),inhibition
1,Nn1c(S)nnc1-c1ccccc1,Active

# System: Solanum tuberosum
# Assay: Induction of accumulation of trans-cinnamic acid in Solanum tuberosum (potato) tubers at 0.02 to 20 ng/disk after 24 hr relative to laminarin
# Format: functional
row,Structure (SMILES),fold change (FC)
1,Nn1c(S)nnc1-c1ccccc1,3
